The nature of the data set: Human HepG2 cell viability assay in 384 well format. Format: toxicity, cell-based. Details: dose 125 nL, time 70.5 hour; cytotoxicity at 70.5 h: concentration not given beside the values. Particulars: HepG2 cells, read-out: Inhibition.

As for `CN1CCC(c2cccc(Cc3ccc(C(F)(F)F)cc3)n2)CC1`, the cytotoxicity at 70.5 h is -0.939%.
Under `Cc1noc(C)c1-c1cccc(CC2CCN(C(=O)c3cscn3)C2)n1` (stereo unspecified) stands -5.81%.
To `CC(=O)Nc1nc(C2CCN(C(=O)C3CCC3)CC2)cs1` belongs -5.93%; to `CS(=O)(=O)N1CCCC(c2cncc(Nc3ccccn3)n2)C1` (stereo unspecified), -7.64%; to `NC(=O)C1(c2cnccn2)CCCN1Cc1ccc(Cl)cc1` (stereo unspecified), -9.51%.
As for `c1cnc(Nc2cncc(C3CCCN(c4ncccn4)C3)n2)nc1` (stereo unspecified), the cytotoxicity at 70.5 h is -7.66%.
Take `CS(=O)(=O)N1CCCC(Cc2cncc(-c3ccccc3C(=O)O)n2)C1` (stereo unspecified): the cytotoxicity at 70.5 h was -12.4%.
Regarding `CN(Cc1ccc(F)cc1)CC1(O)CCN(C(=O)c2ccccn2)C1` (stereo unspecified), the cytotoxicity at 70.5 h is -12.9%.
To `CN(Cc1ccc(F)cc1)CC1(O)CCN(C(=O)c2cccs2)C1` (stereo unspecified) belongs 2.73%; to `O=C(c1ccncc1)N1CCCC1c1nc(O)cc(-c2ccccn2)n1` (stereo unspecified), -2.92%.
To `COc1ncc(CN2CCOC(C)(C(=O)N3CCOCC3)C2)cn1` (stereo unspecified) belongs -4.39%.
Under `CN(C)C(=O)CN1CCCC1c1cccc(Cc2ccccc2F)n1` (stereo unspecified) stands 0.856%; under `NC(=O)C1(c2cnccn2)CCCN1Cc1ccccn1` (stereo unspecified), -3.76%.
Take `NC(=O)C1(c2cnccn2)CCCN1Cc1cccc(Cl)c1` (stereo unspecified): the cytotoxicity at 70.5 h was -2.75%.
To `NCC(=O)N1CCC(c2cncc(Oc3cccnc3)n2)CC1` belongs 1.14%; to `Cc1ccc(CN2CCCC2(C(N)=O)c2cnccn2)c(C)c1` (stereo unspecified), -0.964%; to `c1cnc(Nc2cncc(C3CCCN(c4cnccn4)C3)n2)nc1` (stereo unspecified), -5.35%.
Consider `CN(C)Cc1ccnc(C2CN(CCc3ccccc3)CCO2)n1` (stereo unspecified), for which the cytotoxicity at 70.5 h is 17.9%.
To `CNC(=O)C1(c2cnccn2)CCCN1C(=O)c1c(F)cccc1F` (stereo unspecified) belongs 18.1%.
For the molecule `Cc1ccccc1-c1cncc(C2CCN(Cc3ccccn3)CC2)n1`, the cytotoxicity at 70.5 h is -3.39%.
On to `Cc1ccc(CNc2nc(O)cc(C3CC(=O)N(C)C3)n2)cc1` (stereo unspecified), for which the cytotoxicity at 70.5 h is -4.28%.
To `CC(=O)N1CCC(c2nc(C)cc(-c3ccccc3C(=O)O)n2)CC1` belongs -3.01%.
For `Cc1ccc(CC(=O)N2CCCC(c3n[nH]c4nccnc34)C2)cc1` (stereo unspecified), the cytotoxicity at 70.5 h is -1.21%.
To `Cc1cccc(CC(=O)N2CCCC(c3n[nH]c4nccnc34)C2)c1` (stereo unspecified) belongs 14.6%; to `CNC(=O)c1ccc(C2CN(C(=O)c3c[nH]nc3C)CCO2)nc1` (stereo unspecified), -1.61%; to `CNc1cccc(C2CCCN(C(=O)c3coc(C)n3)C2)n1` (stereo unspecified), -0.702%.
To `Nc1nc2nc(C3CCCN(C(=O)c4cncs4)C3)ccc2s1` (stereo unspecified) belongs 0.556%; to `CC1CCN(S(=O)(=O)N2CCC(Oc3cnccn3)CC2)CC1`, -5.91%.
Take `Cc1ccnc(C2CCN(C(=O)c3cnn(C)c3)C2)n1` (stereo unspecified): the cytotoxicity at 70.5 h was 12.7%.
As for `CCCN(C(=O)c1cnccn1)c1nc2c(s1)CCc1c-2cnn1C`, the cytotoxicity at 70.5 h stood at 7.37%.
Consider `CN(C)Cc1ccnc(C2CCCN2Cc2cc3ccccc3s2)n1` (stereo unspecified), for which the cytotoxicity at 70.5 h was -1.24%.
Under `O=C(c1cccs1)N1CCc2c(nc(N3CCCCC3)[nH]c2=O)C1` stands -0.672%; under `O=C(c1cc[nH]n1)N1CCc2c(nc(N3CCCCC3)[nH]c2=O)C1`, -4.43%; under `Cc1nc(O)c2nnn(C[C@H]3CCCN3C(=O)c3cccs3)c2n1`, -7.34%.
Consider `CN1CCCC(c2cccc(CCC(=O)NCc3ccccn3)n2)C1` (stereo unspecified), for which the cytotoxicity at 70.5 h was -7.64%.
Under `O=C(c1cscn1)N1CCC(Cc2cnc3[nH]ccc3c2)C1` (stereo unspecified) stands -1.17%; under `Cc1nc(O)cc(C2CCCN2CCO)n1` (stereo unspecified), -5.13%.
Under `Cc1cc(C)nc(Nc2cccc(C3CCCN(C(C)C)C3)n2)n1` (stereo unspecified) stands -6.28%; under `c1ccc(OCCN2CCC(c3nnc(-c4cccnc4)o3)CC2)cc1`, -2.58%; under `CCc1c(C)nc2cc(C3CCN(Cc4ccc(F)cc4)C3)nn2c1O` (stereo unspecified), -5.42%.
Under `COC(=O)C1CCCN1C(=O)c1ccc(Cl)cc1F` (stereo unspecified) stands -2.57%; under `NC(=O)C1CCN(S(=O)(=O)c2cnn(-c3ccccc3)c2)CC1`, -4.05%.
Take `COCCn1cc(C(=O)NCCS(N)(=O)=O)c2ccccc21`: the cytotoxicity at 70.5 h was -7.1%.
As for `CCCn1cc(C(=O)NCCCC(N)=O)c2ccccc21`, the cytotoxicity at 70.5 h is -2.51%.
To `O=C(NC1(C(=O)O)CCCCC1)C1Cc2ccccc2O1` (stereo unspecified) belongs -3.59%.
`Cc1noc(C(C)N2CCN(CCn3ccccc3=O)CC2)n1` (stereo unspecified): the cytotoxicity at 70.5 h is -1.66%.
Under `Cc1noc(CNC(=O)NCCc2ccc(Cl)cc2)n1` stands -3.31%; under `Cc1noc(CNC(=O)NCCOc2ccc(Cl)cc2)n1`, -3.2%.
Under `CC(C)CN(CC(C)C)Cn1ncc2cn(-c3ccccc3)nc2c1=O` stands -2.25%; under `COc1c(C2CCCN2c2ncnc3c2CCC3)c(C)nn1C` (stereo unspecified), -2.31%.
To `COc1ccc(C(NC(=O)c2cccc[n+]2[O-])C2CC2)cc1` (stereo unspecified) belongs -3.04%; to `CN(Cc1cc2ccccc2o1)S(C)(=O)=O`, -1.88%; to `CCc1noc(CN(C)C2CCN(c3sccc3C#N)C2=O)n1` (stereo unspecified), -2.79%.
For the molecule `CN(Cc1ncnn1C)C1CCN(c2sccc2C#N)C1=O` (stereo unspecified), the cytotoxicity at 70.5 h is -1.7%.
Under `O=C(NC1(C(=O)O)CCCC1)C1Cc2cc(F)ccc2O1` (stereo unspecified) stands 0.608%; under `CCCC(C)CS(=O)(=O)NCCc1csc(N2CCCC2)n1` (stereo unspecified), -2.73%.
Under `c1csc(-c2noc(C3CCCOC3)n2)c1` (stereo unspecified) stands -2.62%.
To `Cc1nn(C)c(Cl)c1C1CCCN1c1ncnc2c1CCC2` (stereo unspecified) belongs 18%.
As to `CC(C)c1cc(C(=O)N2CCc3ccccc3C2C(=O)O)n(C)n1` (stereo unspecified), the cytotoxicity at 70.5 h was -5.14%.
For `CC(C)c1nc(C(=O)N2CCc3ccccc3C2C(=O)O)cs1` (stereo unspecified), the cytotoxicity at 70.5 h is -2.12%.
Consider `COC(=O)C1CCCCN1C(=O)c1ccccc1F` (stereo unspecified), for which the cytotoxicity at 70.5 h was -2.94%.
To `CC(C)CN(CC(=O)O)C(=O)c1ccc(F)cc1` belongs 4.28%; to `Cc1cc(N2CCC(NS(C)(=O)=O)CC2)nc(C(C)C)n1`, -4.49%.
For the molecule `Cc1ccc(C(=O)Nc2ccccc2N2CCCC2)n1C`, the cytotoxicity at 70.5 h stood at 12%.
Under `CN(Cc1ccccc1F)C(=O)COC(=O)c1cc(Cl)c[nH]1` stands 10.9%; under `CN(Cc1ccco1)C(=O)CN1C(=O)c2cc(Cl)c(Cl)cc2C1=O`, -16.6%.
Regarding `O=C(Nc1cc(C(F)(F)F)c[nH]c1=O)C1CCCO1` (stereo unspecified), the cytotoxicity at 70.5 h is -7.79%.
To `CC(=O)N1CCC(C(=O)NCCc2c[nH]c3cc(C)ccc23)CC1` belongs 16.1%.
To `CC1COCCN1C(=O)COc1cccc(Oc2ccccn2)c1` (stereo unspecified) belongs -9.57%.
Under `NC(=O)CCN(CC(=O)NCc1ccccn1)c1ccc(F)cc1` stands -9.69%; under `c1cc(CNCc2cccc3c2OCCO3)cc(Cn2cncn2)c1`, -10.5%.
For the molecule `CSCC(=O)N1CCOC(c2nc(C(C)(C)C)n[nH]2)C1` (stereo unspecified), the cytotoxicity at 70.5 h is -0.6%.
For `N#CCCCS(=O)(=O)NC1(c2ccc(F)cc2)CC1`, the cytotoxicity at 70.5 h is -8.06%.
Under `CCc1nnsc1C(=O)N1CCOC(c2nc(C(C)C)n[nH]2)C1` (stereo unspecified) stands -2.32%; under `CCc1ocnc1C(=O)N1CCOC(c2nc(C(C)C)n[nH]2)C1` (stereo unspecified), -10.4%; under `O=C(Nc1ccc(F)cc1-c1nc(C2CC2)no1)N1CC[C@@H](O)C1`, -6.37%.
Under `COCc1noc(Cn2c(C3CC3)nc3ccccc32)n1` stands 21.1%; under `CNC(=O)c1cccc(CN2CCN(c3ccncc3)CC2)c1`, 0.282%.
For the molecule `CNS(=O)(=O)C1CCN(c2cc(C(C)C)nc(C(C)C)n2)C1` (stereo unspecified), the cytotoxicity at 70.5 h is -6.44%.
To `CC1CN(C)CCN1C(=O)COc1cccc(Oc2ccccn2)c1` (stereo unspecified) belongs 18.2%; to `c1ncn(Cc2ccc(CNCc3ccc4c(c3)OCCO4)cc2)n1`, -13.3%; to `CCN1CCCCC1C(=O)N1CCC(OC2CCCC2)CC1` (stereo unspecified), 6.41%.
Under `Cc1ccc(CN(C)C(=O)CNC(=O)N2CCc3ccccc3C2)o1` stands 17.9%.
Consider `Cc1cccc(C(=O)N(CC(=O)O)CC(C)C)c1`, for which the cytotoxicity at 70.5 h came out at 11.7%.
On to `CCNC(=O)c1ccc(NC2CCOC3(CCCC3)C2)nn1` (stereo unspecified), for which the cytotoxicity at 70.5 h was found to be 17%.
To `CN(C1CCCCC1)S(=O)(=O)NCC1Cc2ccccc2O1` (stereo unspecified) belongs -1.4%.
To `CCCc1noc(C[S+]([O-])CC(=O)NCc2ccccc2)n1` (stereo unspecified) belongs 15.8%.
With `Cc1c(NC(=O)CN(C)S(C)(=O)=O)cccc1OC1CCCC1`, the cytotoxicity at 70.5 h is -4%.
Turning to `CCn1cc(S(=O)(=O)NCc2ccnc(-n3ccnc3)c2)cn1`, the cytotoxicity at 70.5 h is -6.31%.
For `O=S(=O)(NCc1ccnc(-n2ccnc2)c1)c1cncc(F)c1`, the cytotoxicity at 70.5 h is -1.94%.
Under `Cc1cnn(Cc2cccc(OCC(N)=O)c2)c1` stands -1.49%.
To `Cc1nc(CN2CCc3ccc(S(N)(=O)=O)cc32)oc1C` belongs 0.0206%; to `Cc1cnc(C(NC(=O)NCc2nc(C3CC3)no2)C2CC2)s1` (stereo unspecified), -1.45%; to `CC(C)(C)CC(=O)NCCn1nc(C2CCNC2)c2cccnc21` (stereo unspecified), -6.02%.
Under `CNCC(=O)N1CCCC1c1cncc(Oc2ccc(F)cc2)n1` (stereo unspecified) stands -2.91%.
`CNC(=O)c1cccc(C2CNCCN2C(=O)c2cccc(F)c2)c1` (stereo unspecified): the cytotoxicity at 70.5 h amounted to 25%.
Under `CC(=O)N1CCN(c2cc(CCN)nc(C3CC3)n2)CC1` stands -1.97%; under `CC1CCN(c2cc(CCC3CCCN3)ncn2)CC1` (stereo unspecified), -3.6%; under `NCC(=O)N1CCCC(c2ccnc(Nc3cnccn3)n2)C1` (stereo unspecified), -7.18%.
To `Cn1ccnc1CN1CCCC(Cc2ccnc3ccncc23)CC1` (stereo unspecified) belongs -5.22%; to `Cc1cc(C)nc(N2CCN(Cc3nccn3C)CC2)n1`, -2.76%.

These data come from ChEMBL document CHEMBL3507680, “University of Dundee, Gates Library screen for HepG2 cell viability”.
